Literature values, collected in patent US8664239B2, “Tacrolimus for improved treatment of transplant patients” (Veloxis Pharmaceuticals A/S, priority 2007, dated 2014).
Read-outs that look alike come from different tables or passages of the source.

Assays:
[1] = not given; remark: listed apart in the source

In the case of `C=CC[C@@H]1/C=C(\C)C[C@H](C)C[C@H](OC)[C@H]2O[C@@](O)(C(=O)C(=O)N3CCCC[C@H]3C(=O)O[C@H](/C(C)=C/[C@@H]3CC[C@@H](O)[C@H](OC)C3)[C@H](C)[C@@H](O)CC1=O)[C@H](C)C[C@@H]2OC` [Tacrolimus], the bioavailability (after oral administration) is listed as ≤ 20%, the “mean time-to-peak concentration (tmax)” value (oral administration, healthy subjects or kidney or liver transplanted patients) is listed as 1 to 2 h and the solubility ([1]; in chloroform) is listed as “very soluble”. For the same molecule, the solubility ([1]; in ethanol) was “freely soluble”, the solubility ([1]; in methanol) was “very soluble” and the solubility ([1]; in water) was “practically insoluble”.
